Experimental data from ChEMBL document CHEMBL4308841, “Synthesis, in vitro antiproliferative activity, and kinase inhibitory effects of pyrazole-containing diarylureas and diarylamides” (Eur J Med Chem, 2018).

Assays:
[1] = test system: MDA-MB-435; experiment: Growth inhibition of human MDA-MB-435 cells assessed as cell growth at 100 uM incubated for 48 hrs by sulforhodamine B assay relative to control; format: functional; settings: MDA-MB-435, 48 h, read-out: Activity
[2] = test system: UO-31; experiment: Growth inhibition of human UO31 cells assessed as cell growth at 1 uM incubated for 48 hrs by sulforhodamine B assay relative to control; format: functional; settings: UO-31, 48 h, read-out: Activity
[3] = test system: HCC 2998; experiment: Growth inhibition of human HCC2998 cells assessed as cell growth at 1 uM incubated for 48 hrs by sulforhodamine B assay relative to control; format: functional; settings: HCC 2998, 48 h, read-out: Activity
[4] = test system: M14; experiment: Growth inhibition of human M14 cells assessed as cell growth at 1 uM incubated for 48 hrs by sulforhodamine B assay relative to control; format: functional; settings: M14, 48 h, read-out: Activity
[5] = test system: U-251; experiment: Growth inhibition of human U251 cells assessed as cell growth at 0.1 uM incubated for 48 hrs by sulforhodamine B assay relative to control; format: functional; settings: U-251, 48 h, read-out: Activity
[6] = test system: SR; experiment: Growth inhibition of human SR cells incubated for 48 hrs by sulforhodamine B assay; format: functional, cell-based
[7] = test system: OVCAR-5; experiment: Growth inhibition of human OVCAR5 cells assessed as cell growth at 0.1 uM incubated for 48 hrs by sulforhodamine B assay relative to control; format: functional; settings: OVCAR-5, 48 h, read-out: Activity
[8] = test system: HCC 2998; experiment: Growth inhibition of human HCC2998 cells assessed as cell growth at 100 uM incubated for 48 hrs by sulforhodamine B assay relative to control; format: functional; settings: HCC 2998, 48 h, read-out: Activity
[9] = test system: CAKI-1; experiment: Growth inhibition of human Caki1 cells incubated for 48 hrs by sulforhodamine B assay; format: functional, cell-based; settings: CAKI-1, 48 h
[10] = test system: MDA-MB-468; experiment: Growth inhibition of human MDA-MB-468 cells assessed as cell growth at 100 uM incubated for 48 hrs by sulforhodamine B assay relative to control; format: functional; settings: MDA-MB-468, 48 h, read-out: Activity
[11] = test system: OVCAR-3; experiment: Growth inhibition of human OVCAR3 cells assessed as cell growth at 1 uM incubated for 48 hrs by sulforhodamine B assay relative to control; format: functional; settings: OVCAR-3, 48 h, read-out: Activity
[12] = test system: HCT-116; experiment: Growth inhibition of human HCT116 cells assessed as cell growth at 0.01 uM incubated for 48 hrs by sulforhodamine B assay relative to control; format: functional; settings: HCT-116, 48 h, read-out: Activity
[13] = test system: SNB-19; experiment: Growth inhibition of human SNB19 cells assessed as cell growth at 1 uM incubated for 48 hrs by sulforhodamine B assay relative to control; format: functional; settings: SNB-19, 48 h, read-out: Activity
[14] = test system: RXF 393; experiment: Growth inhibition of human RXF393 cells assessed as cell growth at 0.1 uM incubated for 48 hrs by sulforhodamine B assay relative to control; format: functional; settings: RXF 393, 48 h, read-out: Activity
[15] = test system: RPMI-8226; experiment: Growth inhibition of human RPMI8226 cells assessed as cell growth at 0.1 uM incubated for 48 hrs by sulforhodamine B assay relative to control; format: functional; settings: RPMI-8226, 48 h, read-out: Activity
[16] = test system: NCI-H226; experiment: Growth inhibition of human NCI-H226 cells assessed as cell growth at 0.1 uM incubated for 48 hrs by sulforhodamine B assay relative to control; format: functional; settings: NCI-H226, 48 h, read-out: Activity
[17] = test system: SF-539; experiment: Growth inhibition of human SF539 cells assessed as cell growth at 1 uM incubated for 48 hrs by sulforhodamine B assay relative to control; format: functional; settings: SF-539, 48 h, read-out: Activity
[18] = test system: BT-549; experiment: Growth inhibition of human BT549 cells assessed as cell growth at 100 uM incubated for 48 hrs by sulforhodamine B assay relative to control; format: functional; settings: BT-549, 48 h, read-out: Activity
[19] = test system: MCF7; experiment: Growth inhibition of human MCF7 cells assessed as cell growth at 1 uM incubated for 48 hrs by sulforhodamine B assay relative to control; format: functional; settings: MCF7, 48 h, read-out: Activity
[20] = test system: SN12C; experiment: Growth inhibition of human SN12C cells assessed as cell growth at 100 uM incubated for 48 hrs by sulforhodamine B assay relative to control; format: functional; settings: read-out: Activity
[21] = test system: NCI-H226; experiment: Growth inhibition of human NCI-H226 cells assessed as cell growth at 0.01 uM incubated for 48 hrs by sulforhodamine B assay relative to control; format: functional; settings: NCI-H226, 48 h, read-out: Activity
[22] = test system: BT-549; experiment: Growth inhibition of human BT549 cells assessed as cell growth at 0.1 uM incubated for 48 hrs by sulforhodamine B assay relative to control; format: functional; settings: BT-549, 48 h, read-out: Activity
[23] = test system: OVCAR-8; experiment: Growth inhibition of human OVCAR8 cells incubated for 48 hrs by sulforhodamine B assay; format: functional, cell-based; settings: OVCAR-8, 48 h
[24] = test system: HCC 2998; experiment: Growth inhibition of human HCC2998 cells assessed as cell growth at 0.01 uM incubated for 48 hrs by sulforhodamine B assay relative to control; format: functional; settings: HCC 2998, 48 h, read-out: Activity
[25] = test system: SK-MEL-2; experiment: Growth inhibition of human SK-MEL-2 cells incubated for 48 hrs by sulforhodamine B assay; format: functional, cell-based; settings: SK-MEL-2, 48 h
[26] = test system: K562; experiment: Growth inhibition of human K562 cells assessed as cell growth at 100 uM incubated for 48 hrs by sulforhodamine B assay relative to control; format: functional; settings: K562, 48 h, read-out: Activity
[27] = test system: MOLT-4; experiment: Growth inhibition of human MOLT4 cells incubated for 48 hrs by sulforhodamine B assay; format: functional, cell-based; settings: MOLT-4, 48 h
[28] = test system: A498; experiment: Growth inhibition of human A498 cells assessed as cell growth at 100 uM incubated for 48 hrs by sulforhodamine B assay relative to control; format: functional; settings: A498, 48 h, read-out: Activity
[29] = test system: SR; experiment: Growth inhibition of human SR cells assessed as cell growth at 1 uM incubated for 48 hrs by sulforhodamine B assay relative to control; format: functional; settings: read-out: Activity
[30] = read-out: LC50 (the source's name)
[31] = read-out: pLC50 (the source's name) (converted)

Question: What does the source list for `O=C(Nc1cccc(-n2cc(-c3ccncc3)c(-c3cc(O)cc(Cl)c3)n2)c1)c1cc(C(F)(F)F)cc(C(F)(F)F)c1`?
Answer: growth at 100 µM [1]: 3%; growth at 1 µM [2]: 71%; growth at 1 µM [3]: 96%; growth at 1 µM [4]: 85%; growth at 0.1 µM [5]: 93%; GI50 ([6]; read-out: GI50): 1.51 µM; CC50 [6, 30]: > 100 µM; TGI ([6]; read-out: TGI): 50.1 µM; GI50 ([6]; read-out: pGI50 (converted)): 1.62 µM; CC50 [6, 31]: > 100 µM; TGI ([6]; read-out: pTGI (converted)): 5.01 µM; growth at 0.1 µM [7]: 54%; growth at 100 µM [8]: -34%; GI50 ([9]; read-out: GI50): 3.57 µM; CC50 [9, 30]: > 100 µM; TGI ([9]; read-out: TGI): > 100 µM; GI50 ([9]; read-out: pGI50 (converted)): 3.63 µM; CC50 [9, 31]: > 100 µM; TGI ([9]; read-out: pTGI (converted)): > 100 µM; growth at 100 µM [10]: 2%; growth at 1 µM [11]: 96%; growth at 0.01 µM [12]: 102%; growth at 1 µM [13]: 105%; growth at 0.1 µM [14]: 94%; growth at 0.1 µM [15]: 105%; growth at 0.1 µM [16]: 95%; growth at 1 µM [17]: 91%; growth at 100 µM [18]: -12%; growth at 1 µM [19]: 54%; growth at 100 µM [20]: 17%; growth at 0.01 µM [21]: 95%; growth at 0.1 µM [22]: 103%; GI50 ([23]; read-out: GI50): 3.58 µM; CC50 [23, 30]: > 100 µM; TGI ([23]; read-out: TGI): > 100 µM; GI50 ([23]; read-out: pGI50 (converted)): 3.55 µM; CC50 [23, 31]: > 100 µM; TGI ([23]; read-out: pTGI (converted)): > 100 µM; growth at 0.01 µM [24]: 94%; GI50 ([25]; read-out: GI50): 3.28 µM; CC50 [25, 30]: > 100 µM; TGI ([25]; read-out: TGI): 95.1 µM; GI50 ([25]; read-out: pGI50 (converted)): 3.31 µM; CC50 [25, 31]: > 100 µM; TGI ([25]; read-out: pTGI (converted)): 9.55 µM; growth at 100 µM [26]: 7%; GI50 ([27]; read-out: GI50): 2.38 µM; CC50 [27, 30]: > 100 µM; TGI ([27]; read-out: TGI): > 100 µM; GI50 ([27]; read-out: pGI50 (converted)): 2.4 µM; CC50 [27, 31]: > 100 µM; TGI ([27]; read-out: pTGI (converted)): > 100 µM; growth at 100 µM [28]: -2%; growth at 1 µM [29]: 71%
